# Test results as given in patent publication EP4660184A1 (Eurofarma Laboratórios S.A., priority 2023, dated 2024).
# Tests used:
# [1] = target: T1, human sodium channels Nav 1.7 (Homo sapiens, UniProt Q15858); assay: Automated whole-cell voltage-clamp (ScreenPatch 384P) sodium current block, Nav 1.7; assay type: cell-based; settings: CHO cells stably expressing human Nav 1.7; inactivation step -40 mV for 8 seconds, test step 0 mV (TP1A); exposure at least five minutes; room temperature; mean if two or more assays; read-out: Nav1.7 IC50
# T1 construct: expressed in transfected cells
# Description: (§1) Biological assays were performed on Chinese hamster ovary (CHO) cells that express human sodium channels Nav 1.8 or Nav 1.7 in a stable manner.
# (§2) The experimental protocol voltage-clamp using the whole cell configuration was established on the automated ScreenPatch® 384P platform (SP384PE, Nanion Technologies, Livingston, NJ) and the results were recorded with a Nanion 384-well Patch Clamp chip (NPC) (Nanion Technologies, Livingston, NJ).
# (§3) Formula I compounds were diluted in eight concentrations in the extracellular solution composed of saline saline solution, buffered with HEPES (mM): NaCl, 137; KCl, 4; CaCl2, 3,8; MgCl2, 1; HEPES, 10; Glucose, 10; pH 7.4. The […], 50; CsF, 90; MgCl2, 5; EGTA, 5; HEPES, 10; pH 7.2. The duration of exposure of each compound with cells expressing Nav 1.7 or Nav 1.8 was at least five minutes and the assays were performed at room temperature.
# (§4) The measurements of the sodium currents of Nav 1.8 and Nav 1.7 were obtained using the voltage protocol described below.
# (§5) A holding voltage of -100 mV was established followed by an inactivation voltage step at -40 mV for 8 seconds, followed by a step of -100 mV for 20 ms, followed by a 20 ms step for 10 mV for Nav 1.8 or 0 mV for Nav 1.7 (TP1A) before returning to the holding voltage of -100 mV.
# (§6) The protocol was repeated at a frequency of 0.05 Hz and the amplitude of the current was quantified throughout the recording of the TP1A phase. The variation in the amplitude of the peak current was evaluated according to the formula described below, after exposing the cells expressing the channels to each concentration of the different compounds: % Block = (1−(ITP1A,molecule/ITP1A,basal)×100%, [formula] wherein ITP1A,basal and ITP1A,molecule represent the peaks of sodium current input into TP1A before exposure to the compound and in the presence of the compound, respectively.
# (§7) Data were obtained by nonlinear regression (nonlinear least squares) with XLfit for Excel (Microsoft, Redmond, WA).
# (§8) The compounds were tested in at least one assay to obtain the value of CI50. For compounds that were tested in two or more assays, the results are described as the mean of the CI50 values.
# [2] = target: T2, human sodium channels Nav 1.8 (Homo sapiens, UniProt Q9Y5Y9); assay: Automated whole-cell voltage-clamp (ScreenPatch 384P) sodium current block, Nav 1.8; assay type: cell-based; settings: CHO cells stably expressing human Nav 1.8; inactivation step -40 mV for 8 seconds, test step 10 mV (TP1A); exposure at least five minutes; room temperature; mean if two or more assays; read-out: Nav1.8 IC50
# T2 construct: expressed in transfected cells
# Description: as §1, §2, §3, §4, §5, §6, §7, §8
# T2 sequence (Q9Y5Y9 whole entry): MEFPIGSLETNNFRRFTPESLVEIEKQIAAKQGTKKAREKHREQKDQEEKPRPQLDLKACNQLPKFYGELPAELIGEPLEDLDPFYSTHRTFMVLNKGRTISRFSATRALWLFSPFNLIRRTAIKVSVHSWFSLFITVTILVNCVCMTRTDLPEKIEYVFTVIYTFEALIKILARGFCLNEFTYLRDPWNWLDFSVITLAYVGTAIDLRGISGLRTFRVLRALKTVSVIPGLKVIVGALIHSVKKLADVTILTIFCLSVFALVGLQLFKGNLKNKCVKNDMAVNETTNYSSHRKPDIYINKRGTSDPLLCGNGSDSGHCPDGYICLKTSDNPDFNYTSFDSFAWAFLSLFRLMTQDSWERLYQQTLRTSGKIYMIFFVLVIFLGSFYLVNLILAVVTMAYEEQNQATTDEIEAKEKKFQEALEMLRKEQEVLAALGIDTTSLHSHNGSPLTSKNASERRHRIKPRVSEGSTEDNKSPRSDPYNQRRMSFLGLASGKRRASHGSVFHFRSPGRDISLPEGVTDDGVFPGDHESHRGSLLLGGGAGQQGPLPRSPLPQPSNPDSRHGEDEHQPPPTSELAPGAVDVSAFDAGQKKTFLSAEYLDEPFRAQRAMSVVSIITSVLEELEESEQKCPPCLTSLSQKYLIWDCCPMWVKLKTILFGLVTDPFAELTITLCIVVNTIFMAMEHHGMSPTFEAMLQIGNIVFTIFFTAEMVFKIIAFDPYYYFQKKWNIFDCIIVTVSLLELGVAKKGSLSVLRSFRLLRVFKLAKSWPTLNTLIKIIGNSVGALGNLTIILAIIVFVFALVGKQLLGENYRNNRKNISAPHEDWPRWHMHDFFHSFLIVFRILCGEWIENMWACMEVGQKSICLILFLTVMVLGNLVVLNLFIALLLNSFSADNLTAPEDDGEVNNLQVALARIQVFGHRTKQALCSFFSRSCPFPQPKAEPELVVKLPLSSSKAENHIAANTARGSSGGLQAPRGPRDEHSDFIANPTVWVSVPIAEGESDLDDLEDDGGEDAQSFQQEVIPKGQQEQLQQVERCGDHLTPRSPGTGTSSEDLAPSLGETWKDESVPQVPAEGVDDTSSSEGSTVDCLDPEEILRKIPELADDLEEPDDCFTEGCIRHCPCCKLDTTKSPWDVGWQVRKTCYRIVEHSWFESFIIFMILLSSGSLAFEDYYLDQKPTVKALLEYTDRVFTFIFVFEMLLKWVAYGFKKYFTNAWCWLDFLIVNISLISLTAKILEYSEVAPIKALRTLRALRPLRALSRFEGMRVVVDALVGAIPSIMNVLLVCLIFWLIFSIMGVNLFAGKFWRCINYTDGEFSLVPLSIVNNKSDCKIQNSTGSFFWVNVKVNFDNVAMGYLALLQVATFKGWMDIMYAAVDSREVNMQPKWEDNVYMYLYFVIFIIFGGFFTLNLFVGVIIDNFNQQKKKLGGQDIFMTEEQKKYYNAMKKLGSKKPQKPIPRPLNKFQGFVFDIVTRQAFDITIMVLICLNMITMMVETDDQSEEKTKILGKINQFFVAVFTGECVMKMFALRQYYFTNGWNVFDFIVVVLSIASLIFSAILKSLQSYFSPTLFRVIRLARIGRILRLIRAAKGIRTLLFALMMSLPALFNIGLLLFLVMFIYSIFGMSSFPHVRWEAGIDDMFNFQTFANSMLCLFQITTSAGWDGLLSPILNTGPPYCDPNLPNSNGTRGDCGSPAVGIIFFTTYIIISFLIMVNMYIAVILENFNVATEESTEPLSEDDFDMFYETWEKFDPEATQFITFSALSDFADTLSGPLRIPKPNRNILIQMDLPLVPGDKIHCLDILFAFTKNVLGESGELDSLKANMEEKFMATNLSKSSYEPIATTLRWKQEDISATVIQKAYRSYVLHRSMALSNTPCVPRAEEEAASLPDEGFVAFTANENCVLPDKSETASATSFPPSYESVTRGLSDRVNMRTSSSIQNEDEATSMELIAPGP
# T1 sequence (Q15858 whole entry): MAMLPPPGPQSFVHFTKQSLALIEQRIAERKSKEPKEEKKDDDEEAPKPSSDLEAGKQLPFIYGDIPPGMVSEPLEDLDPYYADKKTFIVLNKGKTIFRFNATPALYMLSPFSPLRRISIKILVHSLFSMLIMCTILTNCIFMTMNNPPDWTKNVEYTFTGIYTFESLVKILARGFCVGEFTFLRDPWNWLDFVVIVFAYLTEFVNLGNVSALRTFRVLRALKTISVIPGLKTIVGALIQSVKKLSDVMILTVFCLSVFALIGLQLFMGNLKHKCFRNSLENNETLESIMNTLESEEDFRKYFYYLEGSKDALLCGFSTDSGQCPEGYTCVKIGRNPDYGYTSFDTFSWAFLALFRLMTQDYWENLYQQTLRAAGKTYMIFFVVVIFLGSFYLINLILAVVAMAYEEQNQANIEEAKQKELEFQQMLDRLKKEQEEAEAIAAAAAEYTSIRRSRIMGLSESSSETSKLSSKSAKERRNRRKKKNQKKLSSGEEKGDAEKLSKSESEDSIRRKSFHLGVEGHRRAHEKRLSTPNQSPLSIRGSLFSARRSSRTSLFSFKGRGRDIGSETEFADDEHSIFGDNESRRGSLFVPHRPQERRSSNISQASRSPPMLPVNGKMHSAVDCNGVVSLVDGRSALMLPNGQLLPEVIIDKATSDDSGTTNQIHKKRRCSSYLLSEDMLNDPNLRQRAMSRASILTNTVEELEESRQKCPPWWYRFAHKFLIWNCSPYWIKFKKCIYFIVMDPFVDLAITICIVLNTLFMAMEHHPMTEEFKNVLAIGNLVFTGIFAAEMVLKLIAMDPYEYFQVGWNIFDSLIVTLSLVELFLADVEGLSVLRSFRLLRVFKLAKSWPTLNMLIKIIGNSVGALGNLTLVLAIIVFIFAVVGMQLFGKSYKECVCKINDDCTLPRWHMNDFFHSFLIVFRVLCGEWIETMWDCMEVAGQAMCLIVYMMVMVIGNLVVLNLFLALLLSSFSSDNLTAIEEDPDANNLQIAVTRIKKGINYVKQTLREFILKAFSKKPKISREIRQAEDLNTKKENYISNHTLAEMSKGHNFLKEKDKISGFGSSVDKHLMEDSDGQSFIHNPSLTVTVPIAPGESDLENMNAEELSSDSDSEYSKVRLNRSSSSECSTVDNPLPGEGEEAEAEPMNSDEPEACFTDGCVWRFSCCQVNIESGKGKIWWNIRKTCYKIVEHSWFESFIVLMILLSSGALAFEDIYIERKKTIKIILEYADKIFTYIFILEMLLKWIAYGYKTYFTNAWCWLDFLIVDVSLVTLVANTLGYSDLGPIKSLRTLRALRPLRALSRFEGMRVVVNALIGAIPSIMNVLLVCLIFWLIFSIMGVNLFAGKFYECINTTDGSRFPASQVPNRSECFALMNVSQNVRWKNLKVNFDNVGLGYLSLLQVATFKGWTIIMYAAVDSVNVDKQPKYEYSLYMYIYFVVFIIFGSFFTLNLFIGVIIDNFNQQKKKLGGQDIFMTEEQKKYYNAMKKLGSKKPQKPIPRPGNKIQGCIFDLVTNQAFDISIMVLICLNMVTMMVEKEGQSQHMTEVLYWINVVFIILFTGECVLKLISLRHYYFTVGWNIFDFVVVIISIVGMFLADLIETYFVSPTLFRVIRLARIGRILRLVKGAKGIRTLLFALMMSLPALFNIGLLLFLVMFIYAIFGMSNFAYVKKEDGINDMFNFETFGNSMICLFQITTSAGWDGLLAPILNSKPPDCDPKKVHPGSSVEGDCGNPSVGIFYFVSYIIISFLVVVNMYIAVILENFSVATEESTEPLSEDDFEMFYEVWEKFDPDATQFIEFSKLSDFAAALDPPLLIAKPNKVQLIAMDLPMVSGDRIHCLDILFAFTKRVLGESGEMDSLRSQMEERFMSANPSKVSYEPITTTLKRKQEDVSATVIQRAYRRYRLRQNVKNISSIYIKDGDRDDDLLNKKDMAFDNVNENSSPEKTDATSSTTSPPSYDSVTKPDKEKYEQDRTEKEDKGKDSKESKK
IC50 [1],IC50 [2],Compound
> 1000 nM,< 500 nM,"CCOc1ccc(-c2cncc(C(=O)NOCc3cc(OC)ccc3F)n2)cn1 [Compound 37, 6-(6-ethoxypyridine-3-yl)-N-((2-fluoro-5-methoxybenzyl)oxy)pyrazine-2-carboxamide]"
> 1000 nM,< 500 nM,"CCOc1ccc(-c2cncc(C(=O)NOCc3[nH]ccc3C)n2)cn1 [Compound 67, 6-(6-ethoxypyridine-3-yl)-N-((3-methyl-1H-pyrrole-2-yl)methoxy)pyrazine-2-carboxamide]"
> 1000 nM,< 500 nM,"CCOc1ccc(-c2cncc(C(=O)NOCc3cccc(OC)c3)n2)cc1 [Compound 5, 6-(4-ethoxyphenyl)-N-((3-methoxybenzyl)oxy)pyrazine-2-carboxamide]"
> 1000 nM,< 500 nM,"COc1ccc(F)c(CONC(=O)c2cncc(-c3ccc(OC)nc3)n2)c1 [Compound 30, N-((2-fluoro-5-methoxybenzyl)oxy)-6-(6-methoxypyridine-3-yl)pyrazine-2-carboxamide]"
> 1000 nM,> 1000 nM,"CCOc1ccc(-c2cncc(C(=O)NOCc3cc(C(C)N)ccc3F)n2)cn1 (stereo not drawn) [Compound 45, N-((5-(1-aminoethyl)-2-fluorobenzyl)oxy)-6-(6-ethoxypyridine-3-yl)pyrazine-2-carboxamide]"
> 1000 nM,> 1000 nM,"CCOc1ccc(-c2cncc(C(=O)NOCc3ccnn3CC)n2)cn1 [Compound 62, 6-(6-ethoxypyridine-3-yl)-N-((1-ethyl-1H-pyrazole-5-yl)methoxy)pyrazine-2-carboxamide]"
> 1000 nM,< 500 nM,"CCOc1ccc(-c2cncc(C(=O)NOCc3cc(O)ccc3F)n2)cc1 [Compound 14, 6-(4-ethoxyphenyl)-N-((2-fluoro-5-hydroxybenzyl)oxy)pyrazine-2-carboxamide]"
> 1000 nM,< 500 nM,"CCOc1ccc(-c2cncc(C(=O)NOCc3cccc(OC)c3)n2)cn1 [Compound 33, 6-(6-ethoxypyridine-3-yl)-N-((3-methoxybenzyl)oxy)pyrazine-2-carboxamide]"
> 1000 nM,> 1000 nM,"CCOc1ccc(-c2cncc(C(=O)NOCc3cc(OC)ccc3O)n2)cc1 [Compound 16, 6-(4-ethoxyphenyl)-N-((2-hydroxy-5-methoxybenzyl)oxy)pyrazine-2-carboxamide]"
> 1000 nM,> 1000 nM,"CCOc1ccc(-c2cncc(C(=O)NOCc3[nH]cnc3C)n2)cn1 [Compound 59, 6-(6-ethoxypyridine-3-yl)-N-((4-methyl-1H-imidazole-5-yl)methoxy)pyrazine-2-carboxamide]"
> 1000 nM,> 1000 nM,"[2H]C([2H])(C)Oc1ccc(-c2cncc(C(=O)NOCc3cc(OC)ccc3F)n2)cn1 [Compound 50, 6-(6-(ethoxy-1,1-d2)pyridine-3-yl)-N-((2-fluoro-5-methoxybenzyl)oxy)pyrazine-2-carboxamide]"
> 1000 nM,> 1000 nM,"CCOc1ccc(-c2cncc(C(=O)NOCc3occc3OC)n2)cn1 [Compound 66, 6-(6-ethoxypyridine-3-yl)-N-((3-methoxyfuran-2-yl)methoxy)pyrazine-2-carboxamide]"
> 1000 nM,> 1000 nM,"CCOc1ccc(-c2cncc(C(=O)NOCc3cccc(O)c3)n2)cc1 [Compound 7, 6-(4-ethoxyphenyl)-N-((3-hydroxybenzyl)oxy)pyrazine-2-carboxamide]"
> 1000 nM,> 1000 nM,"[2H]C([2H])([2H])COc1ccc(-c2cncc(C(=O)NOCc3cc(OC([2H])([2H])[2H])ccc3F)n2)cn1 [Compound 52, 6-(6-(ethoxy-2,2,2-d3)pyridine-3-yl)-N-((2-fluoro-5-(methoxy-d3)benzyl)oxy)pyrazine-2-carboxamide]"
> 1000 nM,> 1000 nM,"CCOc1ccc(-c2cncc(C(=O)NOCc3cc(OC)cc(OC)c3)n2)cc1 [Compound 20, N-((3,5-dimethoxybenzyl)oxy)-6-(4-ethoxyphenyl)pyrazine-2-carboxamide]"
> 1000 nM,> 1000 nM,"CCOc1ccc(-c2cncc(C(=O)NOCc3cc(O)ccc3F)n2)cn1 [Compound 43, 6-(6-ethoxypyridine-3-yl)-N-((2-fluoro-5-hydroxybenzyl)oxy)pyrazine-2-carboxamide]"
500 to 1000 nM,< 500 nM,"COc1ccc(F)c(CONC(=O)c2cncc(-c3ccc(OCC4CN(C)C4)cc3)n2)c1 [Compound 26, N-((2-fluoro-5-methoxybenzyl)oxy)-6-(4-((1-methylazetidine-3-yl)methoxy)phenyl)pyrazine-2-carboxamide]"
> 1000 nM,> 1000 nM,"[2H]C([2H])([2H])COc1ccc(-c2cncc(C(=O)NOCc3cc(OC)ccc3F)n2)cn1 [Compound 49, 6-(6-(ethoxy-2,2,2-d3)pyridine-3-yl)-N-((2-fluoro-5-methoxybenzyl)oxy)pyrazine-2-carboxamide]"

# Continued, compound first:
Compound,IC50 [1],IC50 [2]
CCOc1ccc(-c2nc(C(=O)NOCc3cc(OC)ccc3F)cnc2N)cn1 [Compound 102],> 1000 nM,< 500 nM
COc1cncc(CONC(=O)c2cncc(-c3ccc(OC(F)F)nc3)n2)c1 [Compound 82],> 1000 nM,> 1000 nM
CCOc1ccc(-c2cncc(C(=O)NOCc3cc(OC)ccc3F)n2)cc1O [Compound 89],> 1000 nM,< 500 nM
"COc1ccc(F)c(CONC(=O)c2cncc(-c3ccc(OCC4CNC4)cc3)n2)c1 [Compound 23, 6-(4-(azetidine-3-ylmethoxy)phenyl)-N-((2-fluoro-5-methoxybenzyl)oxy)pyrazine-2-carboxamide]",> 1000 nM,> 1000 nM
CCOc1ccc(-c2cncc(C(=O)NOCc3cc(OC)ccc3F)n2)c(OC)n1 [Compound 94],> 1000 nM,> 1000 nM
CCOc1ccc(-c2cncc(C(=O)NOCc3cc(OC)ccc3F)n2)c(C)c1 [Compound 86],> 1000 nM,< 500 nM
CCOc1ccc(-c2cncc(C(=O)NOCc3ccnn3C)n2)cn1 [Compound 58],> 1000 nM,> 1000 nM
"COc1ccc(F)c(CONC(=O)c2cncc(-c3ccc(OC4CN(C)C4)cc3)n2)c1 [Compound 25, N-((2-fluoro-5-methoxybenzyl)oxy)-6-(4-((1-methylazetidine-3-yl)oxy)phenyl)pyrazine-2-carboxamide]",> 1000 nM,500 to 1000 nM
COc1cnc(F)c(CONC(=O)c2nc(-c3ccc(OC(F)F)nc3)cnc2N)c1 [Compound 120],> 1000 nM,> 1000 nM
"COc1ccc(F)c(CONC(=O)c2cncc(-c3ccc(OC(C)C)cc3)n2)c1 [Compound 3, N-((2-fluoro-5-methoxybenzyl)oxy)-6-(4-isopropoxyphenyl)pyrazine-2-carboxamide]",< 500 nM,< 500 nM
CCOc1ccc(-c2nccc(C(=O)NOCc3cc(OC)cnc3F)n2)cn1 [Compound 110],500 to 1000 nM,< 500 nM
CCOc1ccc(-c2nc(C(=O)NOCc3cc(OC)ccc3F)cnc2O)cn1 [Compound 100],> 1000 nM,< 500 nM
COc1ccc(F)c(CONC(=O)c2ccnc(-c3ccc(OC(F)F)nc3)n2)c1 [Compound 118],> 1000 nM,< 500 nM
CCOc1ccc(-c2cncc(C(=O)NOCc3cc(OC)ccc3F)n2)c(O)c1 [Compound 85],> 1000 nM,> 1000 nM
CCOc1ccc(-c2cncc(C(=O)NOCc3cncn3C(C)C)n2)cn1 [Compound 63],> 1000 nM,> 1000 nM
